Here are results for 28 molecules from article PMC10466331, “Fluorescence polarisation activity-based protein profiling for the identification of deoxynojirimycin-type inhibitors selective for lysosomal retaining alpha- and beta-glucosidases” (Chemical Science, 2023).

Common to all, as to assay type: biochemical
The target of test [1] is T1, human recombinant lysosomal α-glucosidase GAA (Myozyme) (Homo sapiens, UniProt P10253).
T1 construct: purchased Genzyme
Kind of test: fluorogenic substrate (4MU-α-D-glucopyranoside) assay on rhGAA. The conditions noted are these: Table S2, 4-MU alpha glucoside substrate, read-out: IC50 on rhGAA.

Test [2] has as its target T2, recombinant human GAA (rhGAA, Myozyme) (Homo sapiens, UniProt P10253).
T2 construct: purchased Genzyme
The experiment in a line: competitive FluoPol-ABPP assay on rhGAA with TAMRA-ABP II.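 Note: fluorescence polarization read at 540 nm excitation and 590 nm emission, background-corrected, normalized to uninhibited probe labelling as 100% and excess cyclosulfate as 0%.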 The following applies: library screen, 5 μM inhibitor, 25 nM ABP II.

Test [3] deals with T3, ER α-glucosidase GANAB (from Pompe disease Fibroblast lysates) (Homo sapiens, UniProt Q14697).
T3 construct: Cellular homogenates of Pompe fibroblasts (1 mg mL^−1) were used as protein source for GANAB; endogenous in cells; host or cells: Pompe disease fibroblasts (homogenate)
T3 sequence (Q14697 29-944): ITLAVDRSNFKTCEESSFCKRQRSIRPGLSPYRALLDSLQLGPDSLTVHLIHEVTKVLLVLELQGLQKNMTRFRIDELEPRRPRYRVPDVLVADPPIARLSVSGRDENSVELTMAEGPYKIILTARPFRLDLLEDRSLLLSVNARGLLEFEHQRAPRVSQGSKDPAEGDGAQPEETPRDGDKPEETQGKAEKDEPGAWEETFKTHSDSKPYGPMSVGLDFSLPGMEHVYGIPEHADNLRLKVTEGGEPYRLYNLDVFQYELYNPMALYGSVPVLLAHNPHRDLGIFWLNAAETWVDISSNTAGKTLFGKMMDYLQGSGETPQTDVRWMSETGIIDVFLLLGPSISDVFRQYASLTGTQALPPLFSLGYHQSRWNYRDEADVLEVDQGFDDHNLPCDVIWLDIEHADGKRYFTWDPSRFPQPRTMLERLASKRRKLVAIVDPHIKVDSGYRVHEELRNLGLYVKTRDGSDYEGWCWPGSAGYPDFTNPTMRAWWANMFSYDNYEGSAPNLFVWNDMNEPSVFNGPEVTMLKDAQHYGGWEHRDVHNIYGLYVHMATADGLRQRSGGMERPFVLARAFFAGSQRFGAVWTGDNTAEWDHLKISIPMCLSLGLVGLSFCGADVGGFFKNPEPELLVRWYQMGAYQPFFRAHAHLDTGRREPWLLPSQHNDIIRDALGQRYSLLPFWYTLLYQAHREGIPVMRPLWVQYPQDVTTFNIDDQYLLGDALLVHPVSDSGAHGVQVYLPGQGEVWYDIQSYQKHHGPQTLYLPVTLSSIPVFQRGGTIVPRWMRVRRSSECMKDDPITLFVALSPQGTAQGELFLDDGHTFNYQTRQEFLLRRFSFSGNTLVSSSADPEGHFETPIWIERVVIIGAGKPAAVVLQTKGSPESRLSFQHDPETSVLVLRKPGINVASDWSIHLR
T3 sequence (P14314 15-528 partner): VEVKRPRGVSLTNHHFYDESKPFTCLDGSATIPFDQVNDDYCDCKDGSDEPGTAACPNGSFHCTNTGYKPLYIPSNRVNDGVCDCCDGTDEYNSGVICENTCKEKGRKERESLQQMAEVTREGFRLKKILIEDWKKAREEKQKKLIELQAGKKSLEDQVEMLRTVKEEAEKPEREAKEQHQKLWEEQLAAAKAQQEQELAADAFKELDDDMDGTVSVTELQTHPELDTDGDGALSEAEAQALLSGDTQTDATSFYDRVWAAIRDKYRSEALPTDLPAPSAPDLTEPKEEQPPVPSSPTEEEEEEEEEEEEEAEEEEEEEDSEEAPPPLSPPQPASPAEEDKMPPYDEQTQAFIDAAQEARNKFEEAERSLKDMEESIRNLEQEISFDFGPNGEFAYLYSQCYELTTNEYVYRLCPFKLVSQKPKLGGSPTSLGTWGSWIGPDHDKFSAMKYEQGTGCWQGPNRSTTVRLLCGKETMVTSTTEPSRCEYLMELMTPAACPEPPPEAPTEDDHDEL
Kind of test: fluorogenic substrate (4MU-α-D-glucopyranoside) assay on GANAB in Pompe fibroblast homogenates.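 Note: inhibitor preincubated 30 min at 37 °C with homogenate, then GANAB activity read after 2 h with 3.0 mM fluorogenic substrate in McIlvaine buffer containing 0.1% BSA.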 The following applies: Table S2, 4-MU alpha glucoside substrate, read-out: IC50 on GANAB.

Read-outs that look alike come from different tables or passages of the source.

`OC[C@@H]1[C@@H](O)[C@H](O)[C@@H](O)CN1CCCCCOCc1ccc(-c2ccccc2)cc1C(F)(F)F` [#ID 118]: the IC50 in test [1] amounted to 18 nM; in test [3] it was 480 nM. The “GAA FP% (residual FP-signal)” value in test [2] is on record as 2.9%.
Regarding `OC[C@@H]1[C@@H](O)[C@H](O)[C@@H](O)CN1CCCCCOCc1ccc(-c2ccccc2)c(C(F)(F)F)c1` [#ID 120], the IC50 was found to be 16 nM in test [1] and 720 nM in test [3]. Moreover, the “GAA FP% (residual FP-signal)” value in test [2] is recorded as 2.4%.
As to `OC[C@@H]1[C@@H](O)[C@H](O)[C@@H](O)CN1CCCCCOCC1CCCCC1` [#ID 127], the IC50 in test [1] was 290 nM; in test [3], 1840 nM. Also, in test [2], the “GAA FP% (residual FP-signal)” value came out at 9.3%.
For the molecule `OC[C@@H]1[C@@H](O)[C@H](O)[C@@H](O)CN1CCCCCOCc1ccccc1` [#ID 139], the IC50 in test [1] came out at 760 nM; in test [3] it was 9320 nM. For the same molecule, in test [2], the “GAA FP% (residual FP-signal)” value turned out to be 20%.
The like results for `OC[C@@H]1[C@@H](O)[C@H](O)[C@@H](O)CN1CCCCCCOCC12CC3CC(CC(C3)C1)C2` [#ID 141] were, in that order, 290 nM, 580 nM and 1.8%.
For `CCCCN1C[C@H](O)[C@@H](O)[C@@H](O)[C@H]1CO` [#ID 153], the IC50 in test [1] came out at 3600 nM; in test [3], 19000 nM. For the same molecule, the “GAA FP% (residual FP-signal)” value in test [2] came to 14%.
In the same order, the values of `OC[C@@H]1[C@@H](O)[C@H](O)[C@@H](O)CN1CCCCCOCCC12CC3CC(CC(C3)C1)C2` [#ID 170] are 430 nM, 1600 nM and 4.1%.
With `OC[C@@H]1[C@@H](O)[C@H](O)[C@@H](O)CN1CCCCCOCC(COCCCCCN1C[C@H](O)[C@@H](O)[C@H](O)[C@H]1CO)C12CC3CC(CC(C3)C1)C2` [#ID 197], the values for the IC50 in test [1] and in test [3] were 220 nM and 1300 nM, respectively. Besides, the “GAA FP% (residual FP-signal)” value in test [2] was 0.4%.
As for `OC[C@@H]1[C@@H](O)[C@H](O)[C@@H](O)CN1CCCCOCCC12CC3CC(CC(C3)C1)C2` [#ID 203], the IC50 is 42 nM in test [1] and 2100 nM in test [3]. The “GAA FP% (residual FP-signal)” value in test [2] is listed as 9.2%.
`CCCCCCCOCCCCCN1C[C@H](O)[C@@H](O)[C@H](O)[C@H]1CO` [#ID 276]: the IC50 in test [1] (listed as 276) is 72 nM; in test [3] (listed as 276), 1810 nM. Moreover, the “GAA FP% (residual FP-signal)” value in test [2] (listed as 276) was found to be 0.6%.
For the molecule `CCCCCOCCCCCN1C[C@H](O)[C@@H](O)[C@H](O)[C@H]1CO` [#ID 281], the IC50 was 540 nM in test [1] (listed as 281) and 3700 nM in test [3] (listed as 281). The “GAA FP% (residual FP-signal)” value in test [2] (listed as 281) is 4.2%.
Turning to `CCCCOCCCCCN1C[C@H](O)[C@@H](O)[C@H](O)[C@H]1CO` [#ID 283], the IC50 in test [1] (listed as 283) is 720 nM; in test [3] (listed as 283), 4900 nM. The “GAA FP% (residual FP-signal)” value in test [2] (listed as 283) is 4.4%.
In the case of `CCCCCCCCN1C[C@H](O)[C@@H](O)[C@H](O)[C@H]1CO` [#ID 286], the IC50 in test [1] (listed as 286) was 760 nM; in test [3] (listed as 286), 8500 nM. For the same molecule, the “GAA FP% (residual FP-signal)” value in test [2] (listed as 286) was determined as 9.1%.
Regarding `CCCCCCN1C[C@H](O)[C@@H](O)[C@H](O)[C@H]1CO` [#ID 293], the figures for the IC50 in test [1] (listed as 293) and in test [3] (listed as 293) were 1300 nM and 14000 nM, respectively. In addition, the “GAA FP% (residual FP-signal)” value in test [2] (listed as 293) is 17%.
Consider `Cc1ccc(-c2ccc(COCCCCCN3C[C@H](O)[C@@H](O)[C@H](O)[C@H]3CO)cc2)cc1` [#ID 301], for which the IC50 is 37 nM in test [1] and 1600 nM in test [3]. Moreover, the “GAA FP% (residual FP-signal)” value in test [2] is 0.5%.
As to `Cc1cccc(-c2ccc(COCCCCCN3C[C@H](O)[C@@H](O)[C@H](O)[C@H]3CO)cc2)c1` [#ID 302], the IC50 in test [1] is 20 nM; in test [3] it was 1600 nM. In addition, the “GAA FP% (residual FP-signal)” value in test [2] came out at 0.1%.
The like results for `OC[C@@H]1[C@@H](O)[C@H](O)[C@@H](O)CN1CCCCCOCc1ccc(-c2ccc3c(c2)OCO3)cc1` [#ID 303] were, in that order, 140 nM, 4700 nM and 0.1%.
In the case of `OC[C@@H]1[C@@H](O)[C@H](O)[C@@H](O)CN1CCCCCOCc1ccc(-c2ccc3c(c2)OCCCO3)cc1` [#ID 304], the IC50 amounted to 37 nM in test [1] and 1200 nM in test [3]. The “GAA FP% (residual FP-signal)” value in test [2] was 0.6%.
On to `COc1ccc(-c2ccc(COCCCCCN3C[C@H](O)[C@@H](O)[C@H](O)[C@H]3CO)cc2)cc1` [#ID 305], for which the figures for the concentration for half-maximal inhibition (IC50) in test [1] and in test [3] were 20 nM and 380 nM, respectively. Besides, the “GAA FP% (residual FP-signal)” value in test [2] is 0.3%.
Take `COc1cccc(-c2ccc(COCCCCCN3C[C@H](O)[C@@H](O)[C@H](O)[C@H]3CO)cc2)c1` [#ID 306]: the results for the IC50 in test [1] and in test [3] were 15 nM and 390 nM, respectively. Further, the “GAA FP% (residual FP-signal)” value in test [2] stood at 0.8%.
Regarding `OC[C@@H]1[C@@H](O)[C@H](O)[C@@H](O)CN1CCCCCOCc1ccc(-c2ccc(C(F)(F)F)cc2)cc1` [#ID 307], the IC50 in test [1] was determined as 36 nM; in test [3] it was 1700 nM. Further, the “GAA FP% (residual FP-signal)” value in test [2] was 2.5%.
On to `OC[C@@H]1[C@@H](O)[C@H](O)[C@@H](O)CN1CCCCCOCc1ccc(-c2cc(C(F)(F)F)cc(C(F)(F)F)c2)cc1` [#ID 308], for which the IC50 is 2400 nM in test [1] and 14000 nM in test [3]. In addition, the “GAA FP% (residual FP-signal)” value in test [2] was 1.5%.
With `N#Cc1ccc(-c2ccc(COCCCCCN3C[C@H](O)[C@@H](O)[C@H](O)[C@H]3CO)cc2)cc1` [#ID 309], the half-inhibitory concentration (IC50) stood at 37 nM in test [1] and 420 nM in test [3]. Moreover, the “GAA FP% (residual FP-signal)” value in test [2] is given as 0.1%.
On to `N#Cc1cccc(-c2ccc(COCCCCCN3C[C@H](O)[C@@H](O)[C@H](O)[C@H]3CO)cc2)c1` [#ID 310], for which the IC50 in test [1] turned out to be 54 nM; in test [3], 1000 nM. For the same molecule, the “GAA FP% (residual FP-signal)” value in test [2] worked out at 2.5%.
With `OC[C@@H]1[C@@H](O)[C@H](O)[C@@H](O)CN1CCCCCOCc1ccc(-c2ccc(F)cc2)cc1` [#ID 311], the concentration for half-maximal inhibition (IC50) stood at 43 nM in test [1] and 1400 nM in test [3]. Moreover, the “GAA FP% (residual FP-signal)” value in test [2] amounted to 0.9%.
For `OC[C@@H]1[C@@H](O)[C@H](O)[C@@H](O)CN1CCCCCOCc1ccc(-c2cccc(F)c2)cc1` [#ID 312], the IC50 in test [1] amounted to 24 nM; in test [3], 1000 nM. In addition, the “GAA FP% (residual FP-signal)” value in test [2] came to 0.9%.
In the same order, the values of `OC[C@@H]1[C@@H](O)[C@H](O)[C@@H](O)CN1CCCCCOCc1ccc(-c2ccc(Cl)cc2)cc1` [#ID 314] are 93 nM, 150 nM and 1.7%.
In the same order, the values of `OC[C@@H]1[C@@H](O)[C@H](O)[C@@H](O)CN1CCCCCOCc1ccc(-c2ccncc2)cc1` [#ID 316] are 89 nM, 1300 nM and 1.1%.
